According to US9695155B2, “Herbicidal substituted pyrimidinyloxy benzene compounds” (E. I. DU PONT DE NEMOURS AND COMPANY, priority 2013, dated 2017):

Tests used:
[1] = test system: chickweed; assay: Test D preemergence; type: in vivo, Stellaria media
Description: (§1) Seeds of plant species selected from bluegrass (annual bluegrass, Poa annua), blackgrass (Alopecurus myosuroides), canarygrass (littleseed canarygrass, Phalaris minor), chickweed (common chickweed, Stellaria media), galium (catchweed bedstraw, Galium aparine), bromegrass, downy (downy bromegrass, Bromus tectorum), field poppy (Papaver rhoeas), field violet (Viola arvensis), green foxtail (Setaria viridis), deadnettle (henbit deadnettle, Lamium amplexicaule), Italian ryegrass (Lolium multiflorum), kochia (Kochia scoparia), lambsquarters (Chenopodium album), oilseed rape (Brassica napus), pigweed (Amaranthus retroflexus), chamomile (scentless chamomile, Matricaria inodora), Russian thistle (Salsola kali), speedwell (bird's-eye speedwell, Veronica persica), spring barley (Hordeum vulgare), spring wheat (Triticum aestivum), wild buckwheat (Polygonum convolvulus), wild mustard (Sinapis arvensis), wild oat (Avena fatua), wild radish (Raphanus raphanistrum), windgrass (Apera spica-venti), winter barley (Hordeum vulgare), and winter wheat (Triticum aestivum) were planted into a silt loam soil and treated preemergence with test chemicals formulated in a non-phytotoxic solvent mixture which included a surfactant.
(§2) At the same time, these species were planted in pots containing Redi-Earth® planting medium (Scotts Company, 14111 Scottslawn Road, Marysville, Ohio 43041) comprising spaghnum peat moss, vermiculite, wetting agent and starter nutrients and treated with postemergence applications of the test chemicals formulated in the same manner. Plants ranged in height from 2 to 18 cm (1- to 4-leaf stage). Treated plants and controls were maintained in a controlled growth environment for 7 to 21 days after which time all species were compared to controls and visually evaluated. Plant response ratings, summarized in Table D, are based on a scale of 0 to 100 where 0 is no effect and 100 is complete control. A dash (-) response means no test result.

[2] = test system: lambsquarters; assay: Test D postemergence; type: in vivo, Chenopodium album
Description: as §1, §2

[3] = test system: galium; assay: Test D preemergence; type: in vivo, Galium aparine
In short: (§3)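 Solvent/surfactant formulations are sprayed pre (silt loam) or post (1–4 leaf plants, 2–18 cm). Plants stay 7–21 days in controlled conditions before a visual 0–100 score is given.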

[4] = test system: Italian ryegrass; assay: Test D postemergence; type: in vivo, Lolium multiflorum
In short: as §3

[5] = test system: kochia; assay: Test D preemergence; type: in vivo, Kochia scoparia
In short: as §3

[6] = test system: galium; assay: Test D postemergence; type: in vivo, Galium aparine
In short: as §3

[7] = test system: green foxtail; assay: Test D preemergence; type: in vivo, Setaria viridis
In short: as §3

[8] = 31 g ai/ha, scale 0 (no effect) to 100 (complete control)
[9] = 62 g ai/ha, scale 0 to 100 (0 no effect, 100 complete control)
[10] = 125 g ai/ha, scale 0 to 100 (0 no effect, 100 complete control)
[11] = 250 g ai/ha, scale 0 to 100 (0 no effect, 100 complete control)

## Fc1cccc(Oc2ncc(Cl)cn2)c1-n1cc(Br)cn1 [Compound 178, 2-[2-(4-bromo-1H-pyrazol-1-yl)-3-fluorophenoxy]-5-chloropyrimidine]
[1]; Stellaria media, pre-emergence, 16 g ai/ha, scale 0 (no effect) to 100 (complete control), read-out: Plant response rating, Chickweed
  pest or weed control at 16 g/ha: 0%
[1]; Stellaria media, pre-emergence, 31 g ai/ha, scale 0-100, read-out: Plant response rating, Chickweed
  pest or weed control at 31 g/ha: 50%
[1]; Stellaria media, pre-emergence, 62 g ai/ha, scale 0-100, read-out: Plant response rating, Chickweed
  pest or weed control at 62 g/ha: 85%
[1]; Stellaria media, pre-emergence, 125 g ai/ha, scale 0-100, read-out: Plant response rating, Chickweed
  pest or weed control at 125 g/ha: 90%
[2]; Chenopodium album, post-emergence, 16 g ai/ha, scale 0-100, read-out: Plant response rating, Lambsquarters
  pest or weed control at 16 g/ha: 65%
[2]; Chenopodium album, post-emergence, 31 g ai/ha, scale 0 to 100 (0 no effect, 100 complete control), read-out: Plant response rating, Lambsquarters
  pest or weed control at 31 g/ha: 70%
[2]; Chenopodium album, post-emergence, 62 g ai/ha, scale 0 to 100 (0 no effect, 100 complete control), read-out: Plant response rating, Lambsquarters
  pest or weed control at 62 g/ha: 75%
[2]; Chenopodium album, post-emergence, 125 g ai/ha, scale 0 to 100 (0 no effect, 100 complete control), read-out: Plant response rating, Lambsquarters
  pest or weed control at 125 g/ha: 85%
[3]; Galium, pre-emergence, 16 g ai/ha, scale 0 (no effect) to 100 (complete control), read-out: Plant response rating, Galium
  pest or weed control at 16 g/ha: 10%
[3]; Galium, pre-emergence, 31 g ai/ha, scale 0-100, read-out: Plant response rating, Galium
  pest or weed control at 31 g/ha: 30%
[3]; Galium, pre-emergence, 62 g ai/ha, scale 0-100, read-out: Plant response rating, Galium
  pest or weed control at 62 g/ha: 45%
[3]; Galium, pre-emergence, 125 g ai/ha, scale 0-100, read-out: Plant response rating, Galium
  pest or weed control at 125 g/ha: 60%
[4]; Lolium multiflorum, post-emergence, 16 g ai/ha, scale 0-100, read-out: Plant response rating, Ryegrass, Italian
  pest or weed control at 16 g/ha: 0%
[4]; Lolium multiflorum, post-emergence, 31 g ai/ha, scale 0 to 100 (0 no effect, 100 complete control), read-out: Plant response rating, Ryegrass, Italian
  pest or weed control at 31 g/ha: 0%
[4]; Lolium multiflorum, post-emergence, 62 g ai/ha, scale 0 to 100 (0 no effect, 100 complete control), read-out: Plant response rating, Ryegrass, Italian
  pest or weed control at 62 g/ha: 5%
[4]; Lolium multiflorum, post-emergence, 125 g ai/ha, scale 0 to 100 (0 no effect, 100 complete control), read-out: Plant response rating, Ryegrass, Italian
  pest or weed control at 125 g/ha: 15%
[5]; Bassia scoparia, pre-emergence, 16 g ai/ha, scale 0 (no effect) to 100 (complete control), read-out: Plant response rating, Kochia
  pest or weed control at 16 g/ha: 0%
[5]; Bassia scoparia, pre-emergence, 31 g ai/ha, scale 0-100, read-out: Plant response rating, Kochia
  pest or weed control at 31 g/ha: 35%
[5]; Bassia scoparia, pre-emergence, 62 g ai/ha, scale 0-100, read-out: Plant response rating, Kochia
  pest or weed control at 62 g/ha: 85%
[5]; Bassia scoparia, pre-emergence, 125 g ai/ha, scale 0-100, read-out: Plant response rating, Kochia
  pest or weed control at 125 g/ha: 100%
[6]; Galium, post-emergence, 16 g ai/ha, scale 0-100, read-out: Plant response rating, Galium
  pest or weed control at 16 g/ha: 75%
[6]; Galium, post-emergence, 31 g ai/ha, scale 0 to 100 (0 no effect, 100 complete control), read-out: Plant response rating, Galium
  pest or weed control at 31 g/ha: 75%
[6]; Galium, post-emergence, 62 g ai/ha, scale 0 to 100 (0 no effect, 100 complete control), read-out: Plant response rating, Galium
  pest or weed control at 62 g/ha: 75%
[6]; Galium, post-emergence, 125 g ai/ha, scale 0 to 100 (0 no effect, 100 complete control), read-out: Plant response rating, Galium
  pest or weed control at 125 g/ha: 80%
[7]; Setaria viridis, pre-emergence, 16 g ai/ha, scale 0 (no effect) to 100 (complete control), read-out: Plant response rating, Foxtail, Green
  pest or weed control at 16 g/ha: 0%
[7]; Setaria viridis, pre-emergence, 31 g ai/ha, scale 0-100, read-out: Plant response rating, Foxtail, Green
  pest or weed control at 31 g/ha: 0%
[7]; Setaria viridis, pre-emergence, 62 g ai/ha, scale 0-100, read-out: Plant response rating, Foxtail, Green
  pest or weed control at 62 g/ha: 5%
[7]; Setaria viridis, pre-emergence, 125 g ai/ha, scale 0-100, read-out: Plant response rating, Foxtail, Green
  pest or weed control at 125 g/ha: 95%

## N#Cc1cccc(Oc2ncc(Cl)cn2)c1-n1cc(-n2ccc(C(F)(F)F)n2)cn1 [Compound 284]
[1]; [8]
  Plant response rating, Chickweed: 10
[1]; 62 g ai/ha, scale 0-100
  Plant response rating, Chickweed: 15
[1]; 125 g ai/ha, scale 0-100
  Plant response rating, Chickweed: 20
[1]; 250 g ai/ha, scale 0-100
  Plant response rating, Chickweed: 30
[2]; 31 g ai/ha, scale 0-100
  Plant response rating, Lambsquarters: 85
[2]; [9]
  Plant response rating, Lambsquarters: 98
[2]; [10]
  Plant response rating, Lambsquarters: 100
[2]; [11]
  Plant response rating, Lambsquarters: 100
[3]; [8]
  Plant response rating, Galium: 20
[3]; 62 g ai/ha, scale 0-100
  Plant response rating, Galium: 20
[3]; 125 g ai/ha, scale 0-100
  Plant response rating, Galium: 20
[3]; 250 g ai/ha, scale 0-100
  Plant response rating, Galium: 25
[4]; 31 g ai/ha, scale 0-100
  Plant response rating, Ryegrass, Italian: 10
[4]; [9]
  Plant response rating, Ryegrass, Italian: 10
[4]; [10]
  Plant response rating, Ryegrass, Italian: 15
[4]; [11]
  Plant response rating, Ryegrass, Italian: 15
[5]; [8]
  Plant response rating, Kochia: 0
[5]; 62 g ai/ha, scale 0-100
  Plant response rating, Kochia: 20
[5]; 125 g ai/ha, scale 0-100
  Plant response rating, Kochia: 100
[5]; 250 g ai/ha, scale 0-100
  Plant response rating, Kochia: 95
[6]; 31 g ai/ha, scale 0-100
  Plant response rating, Galium: 70
[6]; [9]
  Plant response rating, Galium: 85
[6]; [10]
  Plant response rating, Galium: 85
[6]; [11]
  Plant response rating, Galium: 95
[7]; [8]
  Plant response rating, Foxtail, Green: 10
[7]; 62 g ai/ha, scale 0-100
  Plant response rating, Foxtail, Green: 5
[7]; 125 g ai/ha, scale 0-100
  Plant response rating, Foxtail, Green: 10
[7]; 250 g ai/ha, scale 0-100
  Plant response rating, Foxtail, Green: 80
